Data reported in the supplement of paper PMC10307832.

Tests used:
Experiment in all cases: relative viability (nuclei count vs DMSO), 5 days (fraction); higher = more cells survive
[1] = compound: NC(=O)[C@@H](CCC(F)(F)F)N(Cc1ccc(-c2ncon2)cc1F)S(=O)(=O)c1ccc(Cl)cc1 [Avagacestat] + CCNC(=O)c1noc(-c2cc(C(C)C)c(O)cc2O)c1-c1ccc(CN2CCOCC2)cc1 [Luminespib] (partner 0.01 µM)
Outline: (§1)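 A single step with final 0.05% Triton X-100, 1% formaldehyde and 1 ug/ml Hoechst fixed the cells and stained nuclei 5 days after treatment. Lung cancer cell lines in 1536-well plates had been treated by pin tool the day after seeding with one drug alone or a fixed anchor-drug dose plus five library-drug doses (not always all listed) in √10 steps, and nuclei were counted on 4× images. Relative viability is the ratio of nuclei in treated wells to nuclei in vehicle wells, taken as the median of duplicate plates.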

[2] = compound: NC(=O)[C@@H](CCC(F)(F)F)N(Cc1ccc(-c2ncon2)cc1F)S(=O)(=O)c1ccc(Cl)cc1 [Avagacestat] + Cc1nc(Nc2ncc(C(=O)Nc3c(C)cccc3Cl)s2)cc(N2CCN(CCO)CC2)n1 [Dasatinib] (partner 0.075 µM)
Outline: as §1

[3] = compound: NC(=O)[C@@H](CCC(F)(F)F)N(Cc1ccc(-c2ncon2)cc1F)S(=O)(=O)c1ccc(Cl)cc1 [Avagacestat] + N=C(N)NC(=N)NCCc1ccccc1 [Phenformin] (partner 250 µM)
Outline: as §1

[4] = compound: NC(=O)[C@@H](CCC(F)(F)F)N(Cc1ccc(-c2ncon2)cc1F)S(=O)(=O)c1ccc(Cl)cc1 [Avagacestat] + COc1cccc2cc(-c3nc([C@H]4CC[C@H](C(=O)O)CC4)n4ncnc(N)c34)[nH]c12 [OSI-027] (partner 0.5 µM)
Outline: as §1

[5] = compound: NC(=O)[C@@H](CCC(F)(F)F)N(Cc1ccc(-c2ncon2)cc1F)S(=O)(=O)c1ccc(Cl)cc1 [Avagacestat] + COc1cc2c(Oc3ccc(NC(=O)C4(C(=O)Nc5ccc(F)cc5)CC4)cc3F)ccnc2cc1OCCCN1CCOCC1 [Foretinib] (partner 0.25 µM)
Outline: as §1

[6] = compound: NC(=O)[C@@H](CCC(F)(F)F)N(Cc1ccc(-c2ncon2)cc1F)S(=O)(=O)c1ccc(Cl)cc1 [Avagacestat] + Cc1cc(Nc2cc(N3CCN(C)CC3)nc(Sc3ccc(NC(=O)C4CC4)cc3)n2)n[nH]1 [Tozasertib] (partner 0.1 µM)
Outline: as §1

[7] = compound: NC(=O)[C@@H](CCC(F)(F)F)N(Cc1ccc(-c2ncon2)cc1F)S(=O)(=O)c1ccc(Cl)cc1 [Avagacestat]
Outline: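 Viability is treated-well nuclei as a fraction of vehicle-well nuclei, reported as the median across plates. Before counting, lung cancer cell lines were kept overnight at 37 °C in 1536-well plates, pinned with five √10-spaced library-drug doses on vehicle-anchored plates, and left 5 days without medium change, then fixed, permeabilised and Hoechst-stained in one step, imaged at 4× and counted by MetaXpress. A plate passed only if control CV was below 25% and at least one doubling occurred.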

NCI-H1623
relative viability ([1]; first compound 0.08 µM): 0.491
relative viability ([1]; first compound 0.253 µM): 0.484
relative viability ([1]; first compound 0.8 µM): 0.913
relative viability ([1]; first compound 2.53 µM): 0.609
relative viability ([1]; first compound 8 µM): 0.475
relative viability ([2]; first compound 0.08 µM): 0.525
relative viability ([2]; first compound 0.253 µM): 0.567
relative viability ([2]; first compound 0.8 µM): 0.575
relative viability ([2]; first compound 2.53 µM): 0.511
relative viability ([2]; first compound 8 µM): 0.577
relative viability ([3]; first compound 0.08 µM): 0.576
relative viability ([3]; first compound 0.253 µM): 0.603
relative viability ([3]; first compound 0.8 µM): 0.614
relative viability ([3]; first compound 2.53 µM): 0.577
relative viability ([3]; first compound 8 µM): 0.63
relative viability ([4]; first compound 0.08 µM): 0.437
relative viability ([4]; first compound 0.253 µM): 0.454
relative viability ([4]; first compound 0.8 µM): 0.508
relative viability ([4]; first compound 2.53 µM): 0.424
relative viability ([4]; first compound 8 µM): 0.47
relative viability ([5]; first compound 0.08 µM): 0.879
relative viability ([5]; first compound 0.253 µM): 0.95
relative viability ([5]; first compound 0.8 µM): 1.08
relative viability ([5]; first compound 2.53 µM): 0.813
relative viability ([5]; first compound 8 µM): 0.86
relative viability ([6]; first compound 0.08 µM): 0.448
relative viability ([6]; first compound 0.253 µM): 0.446
relative viability ([6]; first compound 0.8 µM): 0.456
relative viability ([6]; first compound 2.53 µM): 0.46
relative viability ([6]; first compound 8 µM): 0.445
relative viability ([7]; 0.08 µM): 1.02
relative viability ([7]; 0.253 µM): 0.935
relative viability ([7]; 0.8 µM): 1.1
relative viability ([7]; 2.53 µM): 0.921
relative viability ([7]; 8 µM): 1
